# According to publication PMC3616001, “A Novel ^99mTc-Labeled Molecular Probe for Tumor Angiogenesis Imaging in Hepatoma Xenografts Model: A Pilot Study” (PLoS ONE, 2013):
# Bridges are numbered along the chain shown (N, C = ends). Where no end group is shown, it is not given here. [ ]: non-standard residue; d: D form.
# Assays:
# [1] = assay type: in vitro ADME
# Method: For the quality control of labeling, a double-phase paper chromatography on Xinhua no. 1 filter paper was performed to measure labeling efficiency and radiochemical purity, with acetone and ethanol: ammonia: water (2∶1∶5) as mobile phase. A sample of 100 µL ^99mTc-RRL at room temperature was used to observe the in vitro stability. And the in vitro stability was also determined by incubating 100 µL ^99mTc-RRL with 900 µL of normal saline at room temperature and 900 µL of freshly collected serum at 37°C, respectively. The three aliquots were then analyzed at 0, 1, 2, 4 and 6 h by paper chromatography.
# [2] = In vitro stability at room temperature, neat and in normal saline (radiochemical purity by paper chromatography); assay type: physicochemical; conditions: analysed at 0, 1, 2, 4 and 6 h by paper chromatography, average of 3 sampling points
# Method: For the quality control of labeling, a double-phase paper chromatography on Xinhua no. 1 filter paper was performed to measure labeling efficiency and radiochemical purity, with acetone and ethanol: ammonia: water (2∶1∶5) as mobile phase.
# A sample of 100 µL ^99mTc-RRL at room temperature was used to observe the in vitro stability. And the in vitro stability was also determined by incubating 100 µL ^99mTc-RRL with 900 µL of normal saline at room temperature and 900 µL of freshly collected serum at 37°C, respectively. The three aliquots were then analyzed at 0, 1, 2, 4 and 6 h by paper chromatography.
# [3] = system: mice bearing HepG2 xenografts; design: species or system BALB/c nu/nu mice; conditions: mouse, in vivo
# Source text: BALB/c nu/nu mice (female, 18 ± 2 g, 3- to 4-wk-old; Department of Laboratory Animal Science, Peking University First Hospital) were used in this study. The mice were inoculated with 1×10^7 HepG2 cells in the right upper limbs, and the tumors were allowed to grow to about a 1 cm diameter for largest diameter which could be measured. The mice were maintained using a standard diet, bedding and environment, with free access to food and drinking water.
# 40 BALB/c nu/nu mice with HepG2 xenografts were randomly divided into 8 groups (6 experimental groups, 1 blocking group and 1 control group) of 5 mice each. The experimental groups were treated with ^99mTc-RRL directly, and the blocking group was treated with excessive unlabeled RRL (500 µg, dissolved in 50 µL, 0.5 M, pH = 7.4 phosphate buffer) from lateral tail vein 30 minutes before injection of the radiolabeled derivative. The control group was administered with Na^99mTcO4 only.
# The radiolabeled compounds were purified and isolated from the Sephadex G25 gel-filtration column, 1,850 kBq of ^99mTc-RRL was injected into each mouse via the lateral tail vein. All injections were successful with no leakage. The animals of 6 experimental groups were sacrificed by cervical dislocation at 15 min, 30 min, 1, 2, 4 and 6 h after injection, respectively. At 6 h, the blocking and control group were also studied.
# The mice were dissected and tissues of interest (blood, heart, liver, spleen, lung, kidney, stomach, small intestine, bladder, bone, skeletal muscle and tumor) were weighed, and their radioactivity was measured using a γ-well counter, which was equipped with a NaI(Tl) crystal detector and coupled to a high gain PMT for maximum efficiency of 80%, along with a standard solution of the injection. Radioactivity results were recorded as the percentage injected activity per gram (%ID/g) of tissue corrected for background and decay.
# [4] = system: HepG2 xenografts; assay: Planar gamma imaging of tumor xenografts; assay type: in vivo, BALB/c nu/nu mice
# Method: 12 BALB/c nu/nu mice with HepG2 xenografts were divided into 4 groups of 3 mice each (experimental, blocking, control and micro-PET group). The tumors were about 1 cm diameter for planar gamma or micro-PET imaging.
# In experimental group, 7.4 MBq ^99mTc-RRL (100 µl, diluted with phosphate buffer, pH 7.4), which were purified and separated by Sephadex G25 gel-filtration column, were then injected into each mouse via lateral tail vein. In blocking group, 500 µg unlabeled RRL was injected 30 minutes before injection of ^99mTc-RRL. In control group, each mouse was only administered with 7.4 MBq Na^99mTcO4. All injections were successful with no leakage.
# A whole-body planar imaging was performed at 1, 2, 4 and 6 h after injection in the Department of Nuclear Medicine, Peking University First Hospital, using SPECT (SPR SPECT; GE Healthcare, Inc.) equipped with a low-energy, high-resolution, parallel-hole collimator. Planar images were acquired 200,000 counts with a zoom factor of 2.0, and were digitally stored in a 256×256 matrix size.
substance,measurement,setting,value
"G[dA]GGK[dS][dS]CGGRRLGGC-NH2 (disulfide 8-16 (inferred)) [^99mTc-RRL, cyclic (disulfide) RRL peptide radiolabeled with 99mTc by a one-step method]",Radiochemical purity over 6 hours in fresh 37°C serum,[1],more than 93%
same,Radiochemical purity over 6 hours at room temperature (RT),[2]; 100 µL sample at room temperature,more than 93%
same,Radiochemical purity over 6 hours in normal saline (NS) at RT,[2]; 100 µL with 900 µL normal saline at room temperature,more than 93%
same,Blood clearance: tracer cleared from blood,[3],more than 71.3%
same,Ratio of tumor-to-blood,[3],1.95
same,Ratio of tumor-to-liver,[3],1.98
same,Ratio of tumor-to-muscle,[3],exceeded 6.5
same,Tracer cleared from tumor,[3],less than 4.39%
same,"Tumor visualisation in planar gamma imaging, blocking group","[4]; 500 µg unlabeled RRL injected 30 minutes before 7.4 MBq tracer, any time after injection",not shown clearly
same,Tumor visualisation in planar gamma imaging,"[4]; experimental group, 7.4 MBq i.v., at 2–6 h after administration",imaged clearly
